From patent publication US10357577B2, “Bacterial nitroreductase enzymes and methods relating thereto” (AUCKLAND UNISERVICES LIMITED, priority 2010, dated 2019)

Tests used:
[1] = molecular target: T1, E. coli NfsA (Escherichia coli, UniProt P17117); test: Purified enzyme kinetics (NADPH oxidation at 340 nm); format: biochemical; conditions: 0.25 mM NADPH, varying EF5
T1 construct: his6; made in house
Description: FIG. 12 illustrates the purified enzyme kinetic data for eleven E. coli nitroreductases with EF5 as a substrate. Reactions contained 10 mM Tris-Cl (pH 7.0), 4% DMSO, 0.25 mM NADPH and varying EF5 concentrations. Reactions were initiated by addition of 10 μl enzyme and changes in absorbance were measured for 15 s at 340 nm on a spectrophotometer to monitor NTR-catalysed NADPH oxidation.
For EF5 and other 2-NI bio-imaging agents, steady-state enzyme kinetics with purified NTRs were assessed spectrophotometrically at 340 nm to monitor NTR catalyzed NADPH oxidation. The molar extinction co-efficient of NADPH (6,220 M^−1 cm^−1) was used for the calculation of enzyme activity. For PR-104A, reduction was measured directly at 400 nm (ε=6,000 M^−1 cm^−1); and for CB1954, reduction was measured directly at 420 nm (ε=1,200 M^−1 cm^−1). Reactions were performed in 100 μl in UVettes (Eppendorf), using the 2 mm light path length. Reactions contained 10 mM Tris-Cl (pH 7.0), 4% DMSO, 0.25 mM NADPH and varying EF5 or PR-104A concentrations. Reactions were initiated by addition of 10 μl enzyme and changes in absorbance were measured for 15 s (during linearity). For calculation of Km and kcat, substrate concentrations were varied from ˜0.2×Km to 5×Km. Non-linear regression analysis and Michaelis-Menten curve fitting was performed using Sigmaplot 10.0 (Systat Software Inc.).

[2] = cited from earlier work
[3] = tested on: HCT-116 cells expressing human cytochrome P450 reductase (CYPOR); test: Flow cytometry of EF5 retention in vitro; format: cell-based; conditions: increasing EF5 concentrations, oxic, monolayer
Description: (§1) In vitro: 1×10^6 cells were drug treated (EF5 or PIMO) for 1-2 hrs, harvested by trypsinisation, fixed with 4% buffered PFA (pH 7.4, 1 hr). In vivo: Tumour xenograft cells were isolated by enzymatic dissociation (2.5 mg/ml pronase, 1 mg/ml collagenase and 0.2 mg/ml DNAse) and immediately fixed with 4% buffered PFA (pH 7.4, 1 hr). and transferred to 70% ethanol (−20° C., overnight). Cells were resuspended in 1% BSA/PBS and permeabilised with 0.2% Triton X-100 (30 min, RT), blocked in 10% BSA/PBS (30 min, RT) and resuspended in primary antibody for 2 hr (37° C.). The primary antibody was either anti-EF5 mouse monoclonal (ELK 3.51) conjugated with CY5 or Alexa-488 diluted to 100 μg/ml in blocking buffer (according to instruction in Koch C., 2008, Rad Res, 169 (6): 677-688) or Hypoxyprobe-1 (Chemicon Int) mouse monoclonal anti-pimonidazole antibody (clone 4.3.11.3) conjugated with FITC and diluted 1:100 in blocking buffer. Cells were washed in blocking buffer and resuspended in blocking buffer containing 100 μg/ml RNAase and analysed using a Becton Dickinson FACscan flow cytometer (MA, USA) with Cell Quest software using forward scatter and side scatter to gate out cell debris and tumour cells. Integrated fluorescence measurements were recorded for 30,000 single non-debris events.

[4] = tested on: HCT-116 cells stably expressing E. coli NfsB; test: Flow cytometry / fluorescent imaging of EF5 retention in vitro; format: cell-based, human
Description: (§2) FIG. 11 illustrates the results of flow cytometry analysis and fluorescent imaging of stably-expressing E. coli NTR cells after in vitro EF5 exposure. 1×10^6 cells were seeded into a 6-well plate and incubated with 20 μM EF5 for 2 hrs at 37° C. Cells were fixed and stained, then analysed by flow cytometry and imaged using a Nikon2000 fluorescent microscope.
(§3) FIG. 13 illustrates the results of flow cytometry analysis of HCT-116 cells stably expressing E. coli NfsA and NfsB after in vitro dose-response to EF5 exposure. 1×10^6 cells were incubated with varying concentrations of EF5 in oxic conditions. Samples were fixed and stained with EF5 antibody Alexa 488 ELK3.51 at 100 μg/ml. Samples were then analysed on a Becton Dickinson FACscan flow cytometer. Values are mean±SEM of two independent experiments. Representative histograms at multiple EF5 dose levels.
as §1
(§4) In vitro: 3-4 drops of cell suspension prepared for flow cytometry was added to a cytospin chamber containing a poly-I-lysine coated slide and spun for 5 minutes at low acceleration (500 rpm) in a cytospinner. Cells were left to dry and mounted with coverslips using Prolong Gold antifade (Invitrogen) and sealed with nail varnish.

[5] = tested on: HCT-116 cells stably expressing E. coli NfsA; test: as above; format: cell-based, human
Description: as §2, §3, §1, §4

[6] = tested on: nfsA-expressing cells in mixed HCT116 xenografts; test: Immunohistochemical detection of EF5 binding in tumour xenograft sections; format: in vivo, mice; conditions: constant exposure time 0.5 s
Description: FIG. 16 (A) illustrates immunohistochemical detection of EF5 binding in human tumour xenografts harbouring 0%, 3%, 12% or 20% HCT-116^nfsA expressing cells. FIG. 16 (A) further illustrates Fluorescent microscope pictures of tumour sections, and FIG. 16 (B) illustrates flow cytometry histograms of EF5/CY5 fluorescence to confirm % NfsA expressing cells of individual tumour.
In vivo: mice were treated with 60 mg/kg EF5 (ip) and left for 24 hrs. Tumour tissue was excised, fixed in 10% formalin dissolved in PBS (48 h), transferred to 70% ethanol and embedded in paraffin. Sections (5 μm) were cut, mounted onto poly-L-lysine coated glass slides and heat fixed for 1 h at 60° C. Sections were dewaxed, rehydrated, washed in Milli-Q water and then rinsed in 0.01 M Tris buffered saline (TBS, pH 7.4). Antigen retrieval was achieved by boiling samples in 10 mM sodium citrate buffer pH 6 for 25 min. Sections were washed with TBS containing 0.1% Tween-20 (TBS-T) and blocked with 1% mouse serum in TBS. After rinsing, the samples were incubated for 2 hr at room temperature with 100 μg/ml anti-EF5 (Alexa-488) primary antibody diluted in PBS containing 0.2% Tween-20. After rinsing in with TBS-T the coverslips were mounted with Prolong Gold antifade (Invitrogen) and sealed with nail varnish. […] Images were analysed and overlaid using Adobe Photoshop software (Adobe Photoshop 4.0).

[7] = increasing EF5 concentrations, oxic, monolayer

T1 sequence (P17117 whole entry): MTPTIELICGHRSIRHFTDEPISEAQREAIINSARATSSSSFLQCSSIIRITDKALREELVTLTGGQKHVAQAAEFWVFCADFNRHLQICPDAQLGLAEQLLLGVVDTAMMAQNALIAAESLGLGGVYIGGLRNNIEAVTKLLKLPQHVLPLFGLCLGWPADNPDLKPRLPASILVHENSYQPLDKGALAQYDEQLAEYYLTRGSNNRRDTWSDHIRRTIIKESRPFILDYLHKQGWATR

In the case of `O=C(Cn1ccnc1[N+](=O)[O-])NCC(F)(F)C(F)(F)F` [EF5, 2-(2-nitro-1H-imidazol-1-yl)-N-(2,2,3,3,3-pentafluoropropyl)acetamide], the “enzyme kinetics with EF5 as substrate, rank among 11 E. coli NTRs (in words)” value [1] is listed as “highest kcat and kcat/Km ratio”, the “tolerability (in words)” value ([2]; EF5 21 mg/kg, injected) is listed as “without any toxicities” and the “concentration-time achieved in human plasma” value ([2]; cold EF5 9 mg/kg) is listed as 0.89 mM-hr. For the same compound, the “activity towards EF5, dose-response (in words)” value [3] was “minimal activity”, the “cellular retention of EF5 (in words)” value ([4]; 20 μM EF5, 2 h, aerobic, compared to parental cells) was “minor EF5 retention” and the “activity towards EF5, dose-response (in words)” value [4, 7] was “minimal activity”. The “cellular retention of EF5 (in words)” value ([5]; 20 μM EF5, 2 h, aerobic) was “greatest retention”, the “retention of EF5, dose-response (in words)” value [5, 7] was “clearly superior” and the “EF5 retention versus hypoxic activation in HCT-116 parental cells (in words)” value [6] was “clearly superior”.
